Biological target: T1, hTLR9 (Homo sapiens, UniProt Q9NR96)
T1 construct: expressed in transfected cells; host or cells: HEK-Blue-hTLR9 cells (HEK293)
T1 sequence (Q9NR96 26-1032): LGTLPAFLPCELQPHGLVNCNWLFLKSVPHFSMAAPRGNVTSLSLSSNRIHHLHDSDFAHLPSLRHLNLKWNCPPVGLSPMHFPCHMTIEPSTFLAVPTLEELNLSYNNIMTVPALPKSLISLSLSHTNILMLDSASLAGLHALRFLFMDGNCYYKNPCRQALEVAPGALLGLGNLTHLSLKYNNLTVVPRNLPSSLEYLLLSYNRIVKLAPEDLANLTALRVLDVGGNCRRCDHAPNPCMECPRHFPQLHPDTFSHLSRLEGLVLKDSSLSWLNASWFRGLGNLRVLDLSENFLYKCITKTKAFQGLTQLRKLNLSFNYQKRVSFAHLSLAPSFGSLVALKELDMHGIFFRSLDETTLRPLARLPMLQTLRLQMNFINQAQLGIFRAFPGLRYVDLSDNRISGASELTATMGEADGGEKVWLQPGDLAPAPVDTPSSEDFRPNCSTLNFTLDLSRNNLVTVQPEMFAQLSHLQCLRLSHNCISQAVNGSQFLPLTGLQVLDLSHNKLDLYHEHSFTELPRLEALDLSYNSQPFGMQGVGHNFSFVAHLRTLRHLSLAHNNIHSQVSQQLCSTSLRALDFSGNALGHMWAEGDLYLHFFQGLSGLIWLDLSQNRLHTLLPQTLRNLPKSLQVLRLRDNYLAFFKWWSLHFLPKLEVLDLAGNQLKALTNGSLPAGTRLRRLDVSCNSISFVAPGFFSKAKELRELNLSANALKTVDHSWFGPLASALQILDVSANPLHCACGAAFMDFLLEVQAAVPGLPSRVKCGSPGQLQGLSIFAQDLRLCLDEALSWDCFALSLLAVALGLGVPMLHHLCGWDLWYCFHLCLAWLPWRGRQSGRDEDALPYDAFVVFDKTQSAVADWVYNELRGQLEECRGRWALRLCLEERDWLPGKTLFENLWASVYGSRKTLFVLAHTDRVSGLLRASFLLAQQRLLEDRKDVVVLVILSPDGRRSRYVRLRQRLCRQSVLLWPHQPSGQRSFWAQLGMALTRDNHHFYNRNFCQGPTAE
Experiment: hTLR9 antagonism (SEAP inhibition assay) in HEK-Blue-hTLR9 (HEK293) cells, ODN-2006 stimulated
Type: cell-based
Settings: HEK-Blue hTLR9, 1 μM; SEAP, HEK-Blue-hTLR9 cells; read-out: hTLR9 inhibitory activity (% at 1 μM)
Method: hTLR9 Antagonism (SEAP Inhibition Assay) in HEK293 Cell Lines
The SEAP reporter gene in HEK-Blue™-hTLR9 cells is placed under the control of the IFN-b minimal promoter fused to five NF-kB and AP-1 binding sites. The stimulation with a TLR9 ligand (ODN-2006) activates NF-kB and AP-1 which induces the production of SEAP. Levels of SEAP are determined with QUANTI-Blue™ detection medium that turns purple/blue in the presence of alkaline phosphatase. Decrease in the levels of SEAP production as indicated by reduction in absorbance at 650 nm is directly co-related with the TLR9 inhibitory activity of the antagonist (NCE).
HEK-Blue™-hTLR9 cells were maintained in DMEM with 10% FBS, 1% Penicillin/Streptomycin/Amphotericin (complete growth medium) and 0.2% Normocin. For the assay, cells were dissociated by washing in 1×PBS and re-suspended in complete DMEM. Cells were seeded at a density of 20000 cells per well; (40 μl per well) in a 384 well assay plate.
5 μl of 10× antagonist (NCE) was added to the cells in triplicates for each concentration. The plate was incubated for half an hour at 37° C. with 5% CO2. 5 μl of agonist (ODN-2006) was added and the plate was incubated overnight for 18 hours at 37° C. with 5% CO2. 5 μl of supernatant was transferred to a 384 well reading plate and to this 45 μl of Quanti-Blue™ detection reagent was added. The plate was then incubated for an hour at 37° C. SEAP activity in the supernatant was indicated by change in the pink color of Quanti-Blue™ detection reagent to purple/blue and the absorbance was read at 650 nm in the end point mode.

| SMILES | inhibition at 1 µM [%] |
| --- | --- |
| CC1(O)CCN(c2ccc(-c3nccc4[nH]c(CN5CCOCC5)cc34)cc2)CC1 [Example A10, 4-methyl-1-[4-[2-(morpholinomethyl)-1H-pyrrolo[3,2-c]pyridin-4-yl]phenyl] piperidin-4-ol] | 29 |
| C1=C(c2ccc(-c3nccc4[nH]c(CN5CCOCC5)cc34)cc2)CCN(C2COC2)C1 [Example A11, 4-[[4-[4-[1-(oxetan-3-yl)-3,6-dihydro-2H-pyridin-4-yl]phenyl]-1H-pyrrolo[3,2-c]pyridin-2-yl]methyl] morpholine] | 77.5 |
| CC(C)N1CCN(c2ccc(-c3nccc4[nH]c(CN5CCC(F)(F)C5)cc34)cc2)CC1 [Example A18, 2-[(3,3-difluoropyrrolidin-1-yl)methyl]-4-[4-(4-isopropylpiperazin-1-yl)phenyl]-1H-pyrrolo[3,2-c]pyridine] | 100 |
| CC(C)N1CCN(C(=O)c2ccc(-c3nccc4[nH]c(CN5CCOCC5)cc34)cc2)CC1 [Example A19, (4-isopropylpiperazin-1-yl)-[4-[2-(morpholinomethyl)-1H-pyrrolo[3,2-c]pyridin-4-yl]phenyl] methanone] | 90 |
| CN1CCN(C(=O)c2ccc(-c3nccc4[nH]c(CN5CCOCC5)cc34)cc2)CC1 [Example A22, (4-methylpiperazin-1-yl)-[4-[2-(morpholinomethyl)-1H-pyrrolo[3,2-c]pyridin-4-yl]phenyl] methanone] | 62 |
| Cc1cc2[nH]c(CN3CCC(F)CC3)cc2c(-c2ccc(N3CCN(C(C)C)CC3)cc2)n1 [Example A27, 2-[(4-fluoro-1-piperidyl)methyl]-4-[4-(4-isopropylpiperazin-1-yl)phenyl]-6-methyl-1H-pyrrolo[3,2-c]pyridine] | 96.4 |
| CN1CCN(c2ccc(-c3nc(C(F)(F)F)cc4[nH]c(CN5CCOCC5)cc34)cc2)CC1 [Example A31, 4-[[4-[4-(4-methylpiperazin-1-yl)phenyl]-6-(trifluoromethyl)-1H-pyrrolo[3,2-c]pyridin-2-yl]methyl] morpholine] | 66 |
| CC(C)N1CCN(c2ccc(-c3nc(C(F)(F)F)cc4[nH]c(CN5CCOCC5)cc34)cc2)CC1 [Example A32, 4-[[4-[4-(4-isopropylpiperazin-1-yl)phenyl]-6-(trifluoromethyl)-1H-pyrrolo[3,2-c]pyridin-2-yl]methyl] morpholine] | 49 |
| c1cc2[nH]c(CN3CCOCC3)cc2c(-c2cnn(C3CCNCC3)c2)n1 [Example A45, 4-[[4-[1-(4-piperidyl)pyrazol-4-yl]-1H-pyrrolo [3,2-c]pyridin-2-yl]methyl] morpholine] | 76.1 |
| c1cc(-c2nccc3[nH]c(CN4CCOCC4)cc23)cc(N2CCNCC2)c1 [Example A46, 4-[[4-(3-(piperazin-1-yl)phenyl)-1H-pyrrolo[3,2-c]pyridin-2-yl]methyl] morpholine] | 83.5 |
| CC(C)N1CCN(c2ncc(-c3nccc4[nH]c(CN5CCOCC5)cc34)s2)CC1 [Example A58, 4-[[4-[2-(4-isopropylpiperazin-1-yl)thiazol-5-yl]-1H-pyrrolo[3,2-c]pyridin-2-yl]methyl]morpholine] | 98 |
| CN1CCN(c2ccc(-c3nccc4[nH]c(CN5CCOCC5)cc34)cn2)CC1 [Example A59, 4-[[4-[6-(4-methylpiperazin-1-yl)-3-pyridyl]-1H-pyrrolo[3,2-c]pyridin-2-yl]methyl]morpholine] | 94.7 |
| c1cc2[nH]c(CN3CCOCC3)cc2c(-c2ccc(C3CCN(C4COC4)CC3)cc2)n1 [Example A65, 4-[[4-[4-[1-(oxetan-3-yl)-4-piperidyl]phenyl]-1H-pyrrolo[3,2-c]pyridin-2-yl]methyl] morpholine] | 70.5 |
| COC(=O)C1CCN(c2ccc(-c3nccc4[nH]c(CN5CCOCC5)cc34)cc2)CC1 [Example A67, methyl 1-[4-[2-(morpholinomethyl)-1H-pyrrolo[3,2-c]pyridin-4-yl]phenyl]piperidine-4-carboxylate] | 27.5 |
| O=C(O)C1CCN(c2ccc(-c3nccc4[nH]c(CN5CCOCC5)cc34)cc2)CC1 [Example A68, 1-[4-[2-(morpholinomethyl)-1H-pyrrolo[3,2-c]pyridin-4-yl]phenyl]piperidine-4-carboxylic acid] | 21 |
| OC1CCN(c2ccc(-c3nccc4[nH]c(CN5CCOCC5)cc34)cc2)CC1 [Example A69, 1-[4-[2-(morpholinomethyl)-1H-pyrrolo[3,2-c]pyridin-4-yl]phenyl]piperidin-4-ol] | 73.5 |

The next lines start with the values.

| inhibition at 1 µM [%] | SMILES |
| --- | --- |
| 86.1 | CC(C)N1CCN(c2ccc(-c3nccc4[nH]c(CN5CCOCC5)c(Cl)c34)cc2)CC1 [Example A71, 4-[[3-chloro-4-[4-(4-isopropylpiperazin-1-yl)phenyl]-1H-pyrrolo[3,2-c]pyridin-2-yl]methyl]morpholine] |
| 72 | COC(=O)[C@H]1CCCN1Cc1cc2c(-c3ccc(N4CCN(C(C)C)CC4)cc3)nccc2[nH]1 [Example A73, methyl (2R)-1-[[4-[4-(4-isopropyl-piperazin-1-yl)phenyl]-1H-pyrrolo[3,2-c]pyridin-2-yl]methyl]pyrrolidine-2-carboxylate] |
| 34.9 | FC(F)(F)CN1CCN(c2ccc(-c3nccc4[nH]c(CN5CCOCC5)cc34)cc2)CC1 [Example A75, 4-[[4-[4-[4-(2,2,2,2-trifluoroethyl)piperazin-1-yl]phenyl]-1H-pyrrolo[3,2-c]pyridin-2-yl]methyl]morpholine] |
| 81.2 | c1cc2[nH]c(CN3CCOCC3)cc2c(-c2ccc(N3CCN(Cc4cocn4)CC3)cc2)n1 [Example A76, 4-[[4-[4-[4-(oxazol-4-ylmethyl)piperazin-1-yl]phenyl]-1H-pyrrolo[3,2-c]pyridin-2-yl]methyl]morpholine] |
| 100 | CC(C)N1CCN(C2CCC(c3nccc4[nH]c(CN5CCOCC5)cc34)CC2)CC1 (stereo not drawn) [Example A79, 4-[[4-[4-(4-isopropylpiperazin-1-yl)cyclohexyl]-1H-pyrrolo[3,2-c]pyridin-2-yl]methyl]morpholine] |
| 29.5 | c1cc2[nH]c(CN3CCOCC3)cc2c(-c2ccc(N3CCOCC3)cc2)n1 [Example A83, 4-[4-[2-(morpholinomethyl)-1H-pyrrolo[3,2-c]pyridin-4-yl]phenyl]morpholine] |
| 95.2 | Cc1nc(-c2ccc(N3CCN(C(C)C)CC3)cc2)c2cc(CCN3CCCCC3)[nH]c2c1C [Example B9, 4-[4-(4-isopropylpiperazin-1-yl)phenyl]-6,7-dimethyl-2-[2-(1-piperidyl)ethyl]-1H-pyrrolo[3,2-c]pyridine] |
| 98.7 | Cc1cc2[nH]c(CCCN3CCOCC3)cc2c(-c2ccc(N3CCN(C)CC3)cc2)n1 [Example C4, 4-[3-[6-methyl-4-[4-(4-methylpiperazin-1-yl)phenyl]-1H-pyrrolo[3,2-c]pyridin-2-yl]propyl]morpholine] |

From patent publication US9643967B2, “Pyrrolo[3,2-c]pyridine derivatives as TLR inhibitors” (TAKEDA PHARMACEUTICAL COMPANY LIMITED, priority 2013, dated 2017)
